Key:
PTGER2 (EP2) = PTGER2 (EP2) (Homo sapiens (Human), UniProt P43116); assay: hEP2 b-arrestin assay (PathHunter HEK 293 PTGER2 b-arrestin cells); assay type: cell-based; conditions: antagonistic activity, beta-arrestin assay; read-out: hEP2 b-arr IC50
Procedure: Plate is pre-incubated 15 minutes at 37° C. Then five microliters of PGE2 (final conc. 5 μM) are transferred into the assay plate. Plate is incubated 120 minutes at 37° C.
(each concentration is measured in duplicate)

PTGER4 (EP4) = PTGER4 (EP4) (Homo sapiens (Human), UniProt P35408); assay: cell-based
Sequence of PTGER4 (EP4) (P35408 whole entry): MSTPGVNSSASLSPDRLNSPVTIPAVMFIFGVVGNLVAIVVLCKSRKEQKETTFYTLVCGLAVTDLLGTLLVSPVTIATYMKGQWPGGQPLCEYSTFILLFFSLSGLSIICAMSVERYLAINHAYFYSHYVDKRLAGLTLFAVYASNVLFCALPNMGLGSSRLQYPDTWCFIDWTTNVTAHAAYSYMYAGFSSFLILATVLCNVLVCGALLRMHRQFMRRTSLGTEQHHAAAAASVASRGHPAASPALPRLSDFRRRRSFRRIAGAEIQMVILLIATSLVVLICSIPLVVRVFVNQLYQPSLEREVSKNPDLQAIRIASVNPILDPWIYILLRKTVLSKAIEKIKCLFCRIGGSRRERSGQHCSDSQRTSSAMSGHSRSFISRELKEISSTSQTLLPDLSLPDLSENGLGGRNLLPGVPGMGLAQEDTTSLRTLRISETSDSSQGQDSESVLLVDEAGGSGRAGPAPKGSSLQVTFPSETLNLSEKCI

Sequence of PTGER2 (EP2) (P43116 whole entry): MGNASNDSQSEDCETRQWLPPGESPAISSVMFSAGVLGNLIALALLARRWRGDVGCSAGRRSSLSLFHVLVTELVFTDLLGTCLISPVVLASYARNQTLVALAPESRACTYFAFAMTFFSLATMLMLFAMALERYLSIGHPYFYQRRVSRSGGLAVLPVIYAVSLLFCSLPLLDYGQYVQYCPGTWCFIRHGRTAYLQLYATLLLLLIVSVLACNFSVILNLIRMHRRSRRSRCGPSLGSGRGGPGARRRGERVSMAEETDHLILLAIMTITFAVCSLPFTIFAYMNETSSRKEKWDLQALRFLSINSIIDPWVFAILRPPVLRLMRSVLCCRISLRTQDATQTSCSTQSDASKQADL

Row | SMILES | IC50 (PTGER2 (EP2)) | IC50 (PTGER4 (EP4))
1 | CCOc1cc(-c2cc(NCCc3ccc4c(c3C)OCCO4)ncn2)ccc1CC(=O)O [Example 506, (2-Ethoxy-4-{6-[2-(5-methyl-2,3-dihydro-benzo[1,4]dioxin-6-yl)-ethylamino]-pyrimidin-4-yl}-phenyl)-acetic acid] | 172 nM | 332 nM
2 | CCOc1cc(-c2cc(NCCc3ccc4c(c3C)OCCO4)ncn2)ccc1C(=O)O [Example 508, 2-Ethoxy-4-{6-[2-(5-methyl-2,3-dihydro-benzo[1,4]dioxin-6-yl)-ethylamino]-pyrimidin-4-yl}-benzoic acid] | 85 nM | 748 nM
3 | Cc1c(CCNc2cc(-c3ccc(CC(=O)O)c(OC(F)(F)F)c3)ncn2)ccc2c1OCCO2 [Example 509, (4-{6-[2-(5-Methyl-2,3-dihydro-benzo[1,4]dioxin-6-yl)-ethylamino]-pyrimidin-4-yl}-2-trifluoromethoxy-phenyl)-acetic acid] | 29 nM | 356 nM
4 | CCc1cc(-c2cc(NCCc3ccc4c(c3C)OCCO4)ncn2)ccc1CC(=O)O [Example 513, (2-Ethyl-4-{6-[2-(5-methyl-2,3-dihydro-benzo[1,4]dioxin-6-yl)-ethylamino]-pyrimidin-4-yl}-phenyl)-acetic acid] | 158 nM | 347 nM
5 | CCc1cc(-c2cc(NCCc3ccc4sccc4c3F)ncn2)ccc1CC(=O)O [Example 514, (2-Ethyl-4-{6-[2-(4-fluoro-benzo[b]thiophen-5-yl)-ethylamino]-pyrimidin-4-yl}-phenyl)-acetic acid] | 262 nM | 112 nM
6 | CCc1cc(-c2cc(NCCc3ccc4ccccc4c3C)ncn2)ccc1C(=O)O [Example 517, 2-Ethyl-4-{6-[2-(1-methyl-naphthalen-2-yl)-ethylamino]-pyrimidin-4-yl}-benzoic acid] | 108 nM | 288 nM
7 | Cc1c(CCNc2cc(-c3ccc(C(=O)O)c(OC4CC4)c3)ncn2)ccc2c1OCCO2 [Example 519, 2-Cyclopropoxy-4-{6-[2-(5-methyl-2,3-dihydro-benzo[1,4]dioxin-6-yl)-ethylamino]-pyrimidin-4-yl}-benzoic acid] | 19 nM | 262 nM
8 | Cc1c(CCNc2cc(-c3ccc(C(=O)O)c(OC4CC4)c3)ncn2)ccc2ccccc12 [Example 521, 2-Cyclopropoxy-4-{6-[2-(1-methyl-naphthalen-2-yl)-ethylamino]-pyrimidin-4-yl}-benzoic acid] | 31 nM | 78 nM
9 | COc1cc2c(cc1CCNc1cc(-c3ccc(CC(=O)O)c(OC(F)F)c3)ncn1)OCCO2 [Example 522, (2-Difluoromethoxy-4-{6-[2-(7-methoxy-2,3-dihydro-benzo[1,4]dioxin-6-yl)-ethylamino]-pyrimidin-4-yl}-phenyl)-acetic acid] | 131 nM | 204 nM
10 | COc1cc2c(cc1CCNc1cc(-c3ccc(CC(=O)O)c(OC(C)C)c3)ncn1)OCCO2 [Example 523, (2-Isopropoxy-4-{6-[2-(7-methoxy-2,3-dihydro-benzo[1,4]dioxin-6-yl)-ethylamino]-pyrimidin-4-yl}-phenyl)-acetic acid] | 227 nM | 195 nM
11 | CCc1cc(-c2cc(NCCc3cc4c(cc3OC)OCCO4)ncn2)ccc1CC(=O)O [Example 524, (2-Ethyl-4-{6-[2-(7-methoxy-2,3-dihydro-benzo[1,4]dioxin-6-yl)-ethylamino]-pyrimidin-4-yl}-phenyl)-acetic acid] | 231 nM | 257 nM
12 | COc1cc2c(cc1CCNc1cc(-c3ccc(CC(=O)O)c(C(F)(F)F)c3)ncn1)OCCO2 [Example 525, (4-{6-[2-(7-Methoxy-2,3-dihydro-benzo[1,4]dioxin-6-yl)-ethylamino]-pyrimidin-4-yl}-2-trifluoromethyl-phenyl)-acetic acid] | 160 nM | 349 nM
13 | CCCc1cc(-c2cc(NCCc3cc4c(cc3C)OCCO4)ncn2)ccc1CC(=O)O [Example 526, (4-{6-[2-(7-Methyl-2,3-dihydro-benzo[1,4]dioxin-6-yl)-ethylamino]-pyrimidin-4-yl}-2-propyl-phenyl)-acetic acid] | 96 nM | 269 nM
14 | CCCc1cc(-c2cc(NCCc3ccc4c(c3)OCCO4)ncn2)ccc1CC(=O)O [Example 527, (4-{6-[2-(2,3-Dihydro-benzo[1,4]dioxin-6-yl)-ethylamino]-pyrimidin-4-yl}-2-propyl-phenyl)-acetic acid] | 892 nM | 337 nM
15 | CCCc1cc(-c2cc(NCCc3cc4c(cc3F)OCCO4)ncn2)ccc1CC(=O)O [Example 528, (4-{6-[2-(7-Fluoro-2,3-dihydro-benzo[1,4]dioxin-6-yl)-ethylamino]-pyrimidin-4-yl}-2-propyl-phenyl)-acetic acid] | 513 nM | 198 nM
16 | O=c1[nH]c(-c2ccc(-c3cc(NCCc4cc(F)c5sccc5c4)ncn3)cc2)no1 [Example 529, 3-(4-(6-((2-(7-fluorobenzo[b]thiophen-5-yl)ethyl)amino)pyrimidin-4-yl)phenyl)-[1,2,4]oxadiazol-5(4H)-one] | 699 nM | 55 nM
17 | CN1C(=O)NCc2ccc(-c3cc(NCCc4cc(F)c5sccc5c4)ncn3)cc21 [Example 530, 7-{6-[2-(7-Fluoro-benzo[b]thiophen-5-yl)-ethylamino]-pyrimidin-4-yl}-1-methyl-3,4-dihydro-1H-quinazolin-2-one] | 514 nM | 44 nM
18 | O=C(O)c1ccc(-c2cc(NCCc3cc(F)c4sccc4c3)ncn2)cc1OC1CCC1 [Example 534, 2-Cyclobutoxy-4-{6-[2-(7-fluoro-benzo[b]thiophen-5-yl)-ethylamino]-pyrimidin-4-yl}-benzoic acid] | 332 nM | 70 nM
19 | O=c1c(O)c(-c2ccc(-c3cc(NCCc4cc(F)c5sccc5c4)ncn3)cc2)c1=O [Example 536, 3-(4-{6-[2-(7-Fluoro-benzo[b]thiophen-5-yl)-ethylamino]-pyrimidin-4-yl}-phenyl)-4-hydroxy-cyclobut-3-ene-1,2-dione] | 203 nM | 28 nM

The remaining compounds from weak to strong by IC50 (PTGER2 (EP2)), led by results:

Row | IC50 (PTGER2 (EP2)) | IC50 (PTGER4 (EP4)) | SMILES
20 | 871 nM | 42 nM | CCOc1cc(-c2cc(NCCc3cc(F)c4sccc4c3)ncn2)sc1CCC(=O)O [Example 535, 3-(3-Ethoxy-5-{6-[2-(7-fluoro-benzo[b]thiophen-5-yl)-ethylamino]-pyrimidin-4-yl}-thiophen-2-yl)-propionic acid]
21 | 624 nM | 110 nM | O=C(O)c1cccc2[nH]c(-c3cc(NCCc4cc(F)c5sccc5c4)ncn3)cc12 [Example 531, 2-{6-[2-(7-Fluoro-benzo[b]thiophen-5-yl)-ethylamino]-pyrimidin-4-yl}-1H-indole-4-carboxylic acid]
22 | 427 nM | 929 nM | COc1cc(-c2cc(NCCc3ccc4c(c3C)OCCO4)ncn2)ccc1CC(=O)O [Example 505, (2-Methoxy-4-{6-[2-(5-methyl-2,3-dihydro-benzo[1,4]dioxin-6-yl)-ethylamino]-pyrimidin-4-yl}-phenyl)-acetic acid]
23 | 304 nM | 423 nM | Cc1c(CCNc2cc(-c3ccc(CC(=O)O)c(OC(F)F)c3)ncn2)ccc2c1OCCO2 [Example 511, (2-Difluoromethoxy-4-{6-[2-(5-methyl-2,3-dihydro-benzo[1,4]dioxin-6-yl)-ethylamino]-pyrimidin-4-yl}-phenyl)-acetic acid]
24 | 293 nM | 69 nM | Cc1cc(-c2cc(NCCc3cc(F)c4sccc4c3)ncn2)cc(C)c1O [Example 532, 4-{6-[2-(7-Fluoro-benzo[b]thiophen-5-yl)-ethylamino]-pyrimidin-4-yl}-2,6-dimethyl-phenol]
25 | 211 nM | 53 nM | CCSc1cc(-c2cc(NCCc3cc(F)c4sccc4c3)ncn2)ccc1C(=O)O [Example 533, 2-Ethylsulfanyl-4-{6-[2-(7-fluoro-benzo[b]thiophen-5-yl)-ethylamino]-pyrimidin-4-yl}-benzoic acid]
26 | 170 nM | 209 nM | COc1cc(-c2cc(NCCc3ccc4c(c3C)OCCO4)ncn2)ccc1OCCC(=O)O [Example 507, 3-(2-Methoxy-4-{6-[2-(5-methyl-2,3-dihydro-benzo[1,4]dioxin-6-yl)-ethylamino]-pyrimidin-4-yl}-phenoxy)-propionic acid]
27 | 116 nM | 176 nM | CCc1cc(-c2cc(NCCc3cc(F)c4sccc4c3)ncn2)ccc1C(=O)O [Example 518, 2-Ethyl-4-{6-[2-(7-fluoro-benzo[b]thiophen-5-yl)-ethylamino]-pyrimidin-4-yl}-benzoic acid]
28 | 67 nM | 220 nM | CCOc1cc2c(cc1CCNc1cc(-c3ccc(CC(=O)O)c(CC)c3)ncn1)OCCO2 [Example 512, (4-{6-[2-(7-Ethoxy-2,3-dihydro-benzo[1,4]dioxin-6-yl)-ethylamino]-pyrimidin-4-yl}-2-ethyl-phenyl)-acetic acid]
29 | 67 nM | 893 nM | CCc1cc(-c2cc(NCCc3ccc4c(c3C)OCCO4)ncn2)ccc1C(=O)O [Example 515, 2-Ethyl-4-{6-[2-(5-methyl-2,3-dihydro-benzo[1,4]dioxin-6-yl)-ethylamino]-pyrimidin-4-yl}-benzoic acid]
30 | 45 nM | 194 nM | CCOc1cc2c(cc1CCNc1cc(-c3ccc(CC(=O)O)c(OC(F)F)c3)ncn1)OCCO2 [Example 510, (2-Difluoromethoxy-4-{6-[2-(7-ethoxy-2,3-dihydro-benzo[1,4]dioxin-6-yl)-ethylamino]-pyrimidin-4-yl}-phenyl)-acetic acid]
31 | 23 nM | 930 nM | CCOc1cc2c(cc1CCNc1cc(-c3ccc(C(=O)O)c(CC)c3)ncn1)OCCO2 [Example 516, 4-{6-[2-(7-Ethoxy-2,3-dihydro-benzo[1,4]dioxin-6-yl)-ethylamino]-pyrimidin-4-yl}-2-ethyl-benzoic acid]
32 | 19 nM | 107 nM | COc1cc2c(cc1CCNc1cc(-c3ccc(C(=O)O)c(OC4CC4)c3)ncn1)OCCO2 [Example 520, 2-Cyclopropoxy-4-{6-[2-(7-methoxy-2,3-dihydro-benzo[1,4]dioxin-6-yl)-ethylamino]-pyrimidin-4-yl}-benzoic acid]
